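1) Cells in 96-well plates. 2) Compound, 48 h, 5 concentrations. 3) Linear interpolation between surrounding doses. 4) Unreached endpoint = highest concentration. The concentration for 50% growth inhibition is given as GI50. At the TGI there is no net growth.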

In PubChem BioAssay (NCI) one finds GI50 and TGI data, which are given here for nine molecules.

Some test systems named below: BT-549 breast; DU-145 prostate; HOP-62 NSCLC; KM12 colon; MCF7 breast; OVCAR-3 ovarian; PC-3 prostate; SF-268 CNS; SF-539 CNS; SN12C renal.
What all share (experiment): NCI tumour cell line growth inhibition, 48 h

For `C/C=C(\C)C(=O)O[C@@H]1C=CC(=O)O[C@H]1CNC(=O)[C@H](C)O`, the GI50 in the assay with BT-549 breast is 12.5 µM; in the assay with DU-145 prostate, 22.6 µM; in the assay with HOP-62 NSCLC it was 26.4 µM; with KM12 colon, 17.3 µM; in the assay with MCF7 breast it was 15 µM; in the assay on OVCAR-3 ovarian, 17.4 µM. Also, the GI50 in the assay with PC-3 prostate is 27.3 µM; in the assay on SF-268 CNS it was 17 µM; in the assay with SF-539 CNS, 23.3 µM; in the assay with SN12C renal, 26.9 µM. Further, the TGI in the assay on BT-549 breast was determined as 28 µM; in the assay with DU-145 prostate, 69.1 µM; in the assay with HOP-62 NSCLC, 65.3 µM; in the assay with KM12 colon, 36.3 µM; with MCF7 breast it was 46.7 µM; in the assay on OVCAR-3 ovarian it was 37.8 µM. The TGI with PC-3 prostate is greater than 92.2 µM; in the assay on SF-268 CNS it was 51.3 µM; in the assay on SF-539 CNS, 57.5 µM; in the assay on SN12C renal, greater than 75.6 µM.

`Cc1ccc(C2C3Cc4ccccc4C3=NN2c2ccc(S(=O)(=O)NC(=O)Nc3ccccc3)cc2)cc1` (stereo not given): the GI50 in the assay with BT-549 breast was 14.7 µM; in the assay on DU-145 prostate, 14.2 µM; in the assay with HOP-62 NSCLC it was 19.3 µM; with KM12 colon, 17.3 µM; in the assay with MCF7 breast, 17.1 µM; in the assay with OVCAR-3 ovarian, 14.7 µM. The GI50 in the assay with PC-3 prostate was 13.5 µM; with SF-268 CNS, 17.5 µM; with SF-539 CNS, 14.3 µM; with SN12C renal, 14 µM. Besides, the TGI in the assay on BT-549 breast is 34.5 µM; in the assay with DU-145 prostate, 27.2 µM; in the assay with HOP-62 NSCLC it was 63 µM; in the assay with KM12 colon it was 43.2 µM; with MCF7 breast it was greater than 100 µM; in the assay on OVCAR-3 ovarian, 36.5 µM. Besides, the TGI in the assay with PC-3 prostate came to 26.3 µM; in the assay on SF-268 CNS, 55 µM; with SF-539 CNS it was 30.6 µM; in the assay with SN12C renal it was 26.9 µM.

Consider `O=C(O)c1[nH]c2c([N+](=O)[O-])cc([N+](=O)[O-])cc2c1C(=O)O`, for which the TGI in the assay on BT-549 breast, in the assay with DU-145 prostate, with HOP-62 NSCLC, in the assay on KM12 colon, in the assay on MCF7 breast and in the assay on OVCAR-3 ovarian was greater than 100 µM each time. In addition, the TGI in the assay with PC-3 prostate, in the assay with SF-268 CNS, with SF-539 CNS and in the assay on SN12C renal was greater than 100 µM each time.

On to `Cc1ccc2c(c1)C(O)(c1ccccc1)CCS2` (stereo not given), for which the TGI was 93.6 µM in the assay on BT-549 breast; greater than 100 µM with DU-145 prostate; greater than 100 µM in the assay with HOP-62 NSCLC; 54.9 µM in the assay with KM12 colon; greater than 100 µM in the assay on MCF7 breast; 46.9 µM with OVCAR-3 ovarian. Also, the TGI in the assay on PC-3 prostate is greater than 100 µM; with SF-268 CNS, greater than 100 µM; with SF-539 CNS, 55 µM; in the assay on SN12C renal it was greater than 100 µM.

Turning to `Nc1nc(N)c(-c2ccc(Cl)c(Cl)c2)c(CP(Cl)(Cl)(Cl)Br)n1`, the GI50 is 40.7 µM in the assay with BT-549 breast; 9.33 µM with DU-145 prostate; 72.7 µM in the assay with HOP-62 NSCLC; 14.3 µM in the assay on KM12 colon; 16.1 µM with MCF7 breast; 21.1 µM with OVCAR-3 ovarian. Further, the GI50 in the assay on PC-3 prostate was 5.31 µM; in the assay with SF-268 CNS it was 7.05 µM; in the assay with SF-539 CNS it was 12.9 µM; with SN12C renal, 6.47 µM. The TGI in the assay on BT-549 breast, in the assay with DU-145 prostate, with HOP-62 NSCLC, with KM12 colon, in the assay on MCF7 breast and in the assay with OVCAR-3 ovarian was greater than 100 µM in each case. Further, the TGI in the assay with PC-3 prostate, in the assay on SF-268 CNS, in the assay with SF-539 CNS and in the assay with SN12C renal was greater than 100 µM in each case.

As for `CC(=N/NC(N)=S)/C(C)=N/NC(N)=S`, the TGI in the assay with BT-549 breast, in the assay with DU-145 prostate, with HOP-62 NSCLC, with KM12 colon, in the assay on MCF7 breast and in the assay on OVCAR-3 ovarian was greater than 100 µM each time. The TGI in the assay with PC-3 prostate, in the assay with SF-268 CNS, in the assay with SF-539 CNS and in the assay on SN12C renal was greater than 100 µM each time.

`CCOC(=O)c1cc2c(n1Cc1cc(OC)cc(OC)c1)-c1oncc1CC2`: the GI50 in the assay on BT-549 breast was 4.37 µM; in the assay with DU-145 prostate, 0.216 µM; in the assay with HOP-62 NSCLC, 0.327 µM; with KM12 colon, 0.0816 µM; with MCF7 breast it was 0.0492 µM; in the assay on OVCAR-3 ovarian, 0.0389 µM. The GI50 with PC-3 prostate is 0.383 µM; in the assay with SF-268 CNS, 3.18 µM; in the assay with SF-539 CNS, 0.243 µM; in the assay on SN12C renal, 0.994 µM. The TGI with BT-549 breast was greater than 100 µM; with DU-145 prostate, 25.7 µM; in the assay with HOP-62 NSCLC it was greater than 100 µM; with KM12 colon, greater than 59.5 µM; in the assay with MCF7 breast, greater than 100 µM; with OVCAR-3 ovarian, 0.197 µM. Further, the TGI is greater than 100 µM with PC-3 prostate, greater than 100 µM in the assay with SF-268 CNS, 4.58 µM with SF-539 CNS and greater than 100 µM with SN12C renal.

As for `CCC(C(=O)[C@@H](C)[C@@H](O)[C@H](C)[C@@H]1O[C@@H]([C@@H](CC)C(=O)ONC(=O)c2ccccc2)CC[C@@H]1C)[C@H]1O[C@]2(C=CC(=O)[C@]3(CC[C@@](C)([C@H]4CC[C@](O)(CC)[C@H](C)O4)O3)O2)[C@H](C)C[C@@H]1C` (stereo not given in full), the GI50 was 0.146 µM in the assay with BT-549 breast; 0.511 µM in the assay on DU-145 prostate; 0.161 µM in the assay with HOP-62 NSCLC; 0.592 µM in the assay with KM12 colon; 0.0869 µM with MCF7 breast; 0.0849 µM in the assay with OVCAR-3 ovarian. Further, the GI50 in the assay with PC-3 prostate is 0.0775 µM; in the assay on SF-268 CNS it was 0.977 µM; in the assay with SF-539 CNS it was 0.262 µM; in the assay on SN12C renal it was 0.0614 µM. Besides, the TGI in the assay on BT-549 breast was 1.97 µM; in the assay with DU-145 prostate, 1.98 µM; in the assay with HOP-62 NSCLC, 1.95 µM; in the assay with KM12 colon, 2.94 µM; in the assay with MCF7 breast, 1.62 µM; with OVCAR-3 ovarian, 1.29 µM. Moreover, the TGI in the assay on PC-3 prostate worked out at 1.99 µM; with SF-268 CNS, 3.11 µM; in the assay with SF-539 CNS, 1.71 µM; in the assay with SN12C renal, 1.49 µM.

With `CCCCC[C@H]1C/C=C2/C(=O)C(Cl)=C[C@@H]2C/C=C\CCCC(=O)O1`, the GI50 in the assay on BT-549 breast was 0.421 µM; with DU-145 prostate, 0.638 µM; with HOP-62 NSCLC, 0.53 µM; with KM12 colon it was 0.518 µM; in the assay on MCF7 breast it was 0.0886 µM; with OVCAR-3 ovarian, 0.366 µM. Further, the GI50 in the assay with PC-3 prostate is 0.473 µM; in the assay on SF-268 CNS, 0.803 µM; in the assay on SF-539 CNS it was 0.607 µM; in the assay on SN12C renal, 0.333 µM. Moreover, the TGI was determined as 0.825 µM in the assay with BT-549 breast; 2.51 µM with DU-145 prostate; 1.15 µM in the assay on HOP-62 NSCLC; 1.33 µM with KM12 colon; 2.7 µM in the assay with MCF7 breast; 1.26 µM with OVCAR-3 ovarian. Also, the TGI in the assay with PC-3 prostate was 1.27 µM; in the assay on SF-268 CNS, 3.72 µM; with SF-539 CNS, 1.61 µM; with SN12C renal, 0.905 µM.
